How the values were obtained:
[1] = target: T1, Muscarinic acetylcholine receptor M1 (Rattus norvegicus, UniProt P08482)
T1 sequence (P08482 whole entry): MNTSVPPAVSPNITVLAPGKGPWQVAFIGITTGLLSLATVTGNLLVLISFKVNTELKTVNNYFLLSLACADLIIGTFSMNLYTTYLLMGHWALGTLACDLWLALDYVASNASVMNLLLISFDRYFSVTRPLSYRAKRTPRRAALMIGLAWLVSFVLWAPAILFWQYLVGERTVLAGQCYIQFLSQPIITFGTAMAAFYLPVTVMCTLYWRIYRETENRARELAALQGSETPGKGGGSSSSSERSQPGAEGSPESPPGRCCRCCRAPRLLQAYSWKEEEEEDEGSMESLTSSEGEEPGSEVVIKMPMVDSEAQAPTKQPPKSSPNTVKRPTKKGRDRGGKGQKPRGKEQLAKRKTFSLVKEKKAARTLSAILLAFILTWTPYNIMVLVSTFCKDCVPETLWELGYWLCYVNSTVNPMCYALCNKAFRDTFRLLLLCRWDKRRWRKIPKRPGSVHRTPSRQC

[2] = target: T2, Muscarinic acetylcholine receptor M5 (Homo sapiens, UniProt P08912)
T2 sequence (P08912 whole entry): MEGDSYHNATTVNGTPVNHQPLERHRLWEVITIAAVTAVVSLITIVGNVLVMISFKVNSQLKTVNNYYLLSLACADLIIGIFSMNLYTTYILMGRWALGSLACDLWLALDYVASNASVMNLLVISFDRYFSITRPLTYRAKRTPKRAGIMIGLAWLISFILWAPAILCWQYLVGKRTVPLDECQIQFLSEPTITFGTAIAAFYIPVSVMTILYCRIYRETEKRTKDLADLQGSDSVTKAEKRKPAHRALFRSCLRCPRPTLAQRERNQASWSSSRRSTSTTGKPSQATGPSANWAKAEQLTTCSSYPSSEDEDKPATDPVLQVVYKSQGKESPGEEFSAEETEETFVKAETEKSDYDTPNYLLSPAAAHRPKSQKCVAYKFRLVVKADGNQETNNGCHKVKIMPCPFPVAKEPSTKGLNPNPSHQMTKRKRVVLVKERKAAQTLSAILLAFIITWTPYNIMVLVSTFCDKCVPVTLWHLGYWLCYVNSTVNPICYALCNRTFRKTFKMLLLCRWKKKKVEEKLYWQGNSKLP

[3] = target: T3, Muscarinic acetylcholine receptor M4 (Homo sapiens, UniProt P08173)
T3 sequence (P08173 whole entry): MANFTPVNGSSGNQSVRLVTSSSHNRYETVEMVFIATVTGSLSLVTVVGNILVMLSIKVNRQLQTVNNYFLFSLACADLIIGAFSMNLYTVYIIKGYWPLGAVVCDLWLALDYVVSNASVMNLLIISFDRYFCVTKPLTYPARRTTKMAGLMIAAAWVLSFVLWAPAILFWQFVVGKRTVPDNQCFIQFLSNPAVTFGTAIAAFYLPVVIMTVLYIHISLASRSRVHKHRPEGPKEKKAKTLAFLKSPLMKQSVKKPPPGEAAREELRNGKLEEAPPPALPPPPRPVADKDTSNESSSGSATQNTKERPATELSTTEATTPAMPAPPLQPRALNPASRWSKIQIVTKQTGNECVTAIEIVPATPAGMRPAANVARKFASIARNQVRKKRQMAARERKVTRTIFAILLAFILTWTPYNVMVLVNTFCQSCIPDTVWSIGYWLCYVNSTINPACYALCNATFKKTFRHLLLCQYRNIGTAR

| SMILES | Ki [1] [nM] | Ki [2] [nM] | Ki [3] [nM] |
| --- | --- | --- | --- |
| OC(CCCN1CCCCC1)(c1ccccc1)C1CCCCC1 (stereo unspecified) [CAS_113010-69-8] | 11 | 83 |  |
| O[Si](CCCN1CCCCC1)(c1ccccc1)C1CCCCC1 (stereo unspecified) [HHSiD] | 44 | 63 |  |
| C[N+]1(C)CCN(CC(O)(c2ccccc2)C2CCCCC2)CC1 (stereo unspecified) [CAS_115-63-9] | 2.3 | 3.7 | 5.5 |
| COc1ccccc1CNCCCCCCNCCCCCCCCNCCCCCCNCc1ccccc1OC [METHOCTRAMINE] |  | 57 |  |
| C[N+]1([SiH3])CCN(CC(O)(c2ccccc2)C2CCCCC2)CC1 (stereo unspecified) [CAS_124393-85-7] | 2 | 2 | 3.2 |

Reference: BindingDB's records for PubMed 2704370 (National Institute of Mental Health, 1989)
